Experimental findings from ChEMBL document CHEMBL1201862, “PubChem BioAssay data set” (2004) are described below.

Among the test systems are NCI-H522; NCI-H226; MOLT-4; MDA-N; SF-539; HCC 2998; SF-295; U-251; BT-549; NCI/ADR-RES; RPMI-8226; SK-MEL-5; CAKI-1; SK-OV-3; SN12C; OVCAR-8; DU-145; HL-60; A549; UACC-257.
What all share (assay): inhibition of tumour cell growth, NCI panel, 48 h

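Values below derive from 48-hour exposures of cells grown in 96-well plates, with endpoints linearly interpolated between the two concentrations bracketing the appropriate inhibition level. GI50 = concentration required for 50% inhibition of growth.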 Activity calls are given as the source filed them. Rule as the data show it: active = GI50 up to about 1.1 µM and inactive = higher. Bounds are passed on as bounds.

As to `COc1cc2cc(C(=O)N3CC(COS(C)(=O)=O)c4c3cc([N+](=O)[O-])c3ccccc43)[nH]c2c(OC)c1OC` (stereo not drawn), the GI50 with NCI-H522 is 2.99 µM (inactive); with NCI-H226 it was > 100 µM (inactive); in the experiment on MOLT-4, 0.407 µM (active); with MDA-N, 19.5 µM (inactive); in the experiment with SF-539 it was 4.05 µM (inactive); with HCC 2998 it was 0.291 µM (active). Besides, the GI50 in the experiment with SF-295 is 2.37 µM (inactive); in the experiment with U-251 it was > 31.6 µM (inactive); in the experiment with BT-549, > 31.6 µM (inactive); with NCI/ADR-RES, 0.698 µM (active); in the experiment on RPMI-8226, 2.92 µM (inactive); in the experiment with SK-MEL-5 it was > 10 µM (inactive). The GI50 in the experiment with CAKI-1 is 0.398 µM (active); in the experiment with SK-OV-3 it was 61.9 µM (inactive); in the experiment with SN12C, 5.83 µM (inactive); with OVCAR-8 it was 2.15 µM (inactive); in the experiment on DU-145 it was 0.553 µM (active); in the experiment with HL-60, 0.794 µM (active). Besides, the GI50 is 2.81 µM (inactive) in the experiment on A549 and > 31.6 µM (inactive) in the experiment on UACC-257.
On to `C(=C\c1cccs1)/c1cccc(/C=C/c2cccs2)n1`, for which the GI50 with NCI-H522 was 1.53 µM (inactive); in the experiment on NCI-H226, > 100 µM (inactive); in the experiment with MOLT-4, > 100 µM (inactive); in the experiment on MDA-N it was > 100 µM (inactive); with SF-539, > 100 µM (inactive); in the experiment with HCC 2998 it was 56.9 µM (inactive). Moreover, the GI50 in the experiment with SF-295 was > 100 µM (inactive); in the experiment with U-251 it was 54.7 µM (inactive); in the experiment on BT-549, 22 µM (inactive); in the experiment on NCI/ADR-RES, > 100 µM (inactive); in the experiment on RPMI-8226 it was > 100 µM (inactive); in the experiment on SK-MEL-5, > 100 µM (inactive). The GI50 with CAKI-1 was > 100 µM (inactive); in the experiment with SK-OV-3, > 100 µM (inactive); in the experiment on SN12C, 61 µM (inactive); in the experiment with OVCAR-8 it was 60.5 µM (inactive); in the experiment with DU-145, > 100 µM (inactive); in the experiment with HL-60 it was > 100 µM (inactive). For the same compound, the values for the GI50 in the experiment on A549 and in the experiment with UACC-257 were 60.7 µM (inactive) and > 100 µM (inactive), respectively.
Turning to `CCc1ccc(CCC(=O)O)nc1`, the GI50 with NCI-H522, in the experiment with NCI-H226, in the experiment on MDA-N, with SF-539, in the experiment on HCC 2998 and in the experiment with SF-295 was > 100 µM (inactive) in each case. The GI50 with U-251, with BT-549, with NCI/ADR-RES, in the experiment with RPMI-8226, in the experiment on SK-MEL-5 and in the experiment with CAKI-1 was > 100 µM (inactive) each time. The GI50 in the experiment with SK-OV-3, in the experiment on SN12C, in the experiment with OVCAR-8, in the experiment with DU-145, with HL-60 and in the experiment on A549 was > 100 µM (inactive) throughout. Further, in the experiment with UACC-257, the GI50 was > 100 µM (inactive).
As to `CC1(C)CCC2=C(O1)/C(=N\Nc1ccc(F)cc1)c1ccccc1C2=O`, the GI50 was 61.9 µM (inactive) in the experiment with NCI-H522; > 100 µM (inactive) in the experiment with NCI-H226; 35.3 µM (inactive) in the experiment on MOLT-4; 17.7 µM (inactive) in the experiment on MDA-N; 46.9 µM (inactive) in the experiment with SF-539; 21.9 µM (inactive) in the experiment on HCC 2998. In addition, the GI50 in the experiment on SF-295 is 20.7 µM (inactive); in the experiment on U-251, 31.5 µM (inactive); in the experiment with BT-549 it was 41.9 µM (inactive); in the experiment on NCI/ADR-RES it was 71.8 µM (inactive); with RPMI-8226 it was 40.4 µM (inactive); with SK-MEL-5, 8.91 µM (inactive). In addition, the GI50 was 40.4 µM (inactive) in the experiment on CAKI-1; 54.7 µM (inactive) in the experiment on SK-OV-3; 32.3 µM (inactive) in the experiment on SN12C; 41.8 µM (inactive) with OVCAR-8; 18.4 µM (inactive) with DU-145; 16 µM (inactive) in the experiment with HL-60. Besides, the GI50 in the experiment on A549 was 16.1 µM (inactive); in the experiment on UACC-257, 17.3 µM (inactive).
Take `COc1cccc(/C=C2\CCC(CN(C)C)C2=O)c1` (stereo not drawn): the GI50 in the experiment with NCI-H522 is 2.56 µM (inactive); with NCI-H226, 16.3 µM (inactive); in the experiment on MOLT-4, 1.44 µM (inactive); with MDA-N, 4.73 µM (inactive); in the experiment with SF-539, 13.9 µM (inactive); in the experiment with HCC 2998, 10.8 µM (inactive). Further, the GI50 in the experiment on SF-295 is 16.6 µM (inactive); with U-251, 12.3 µM (inactive); in the experiment with BT-549 it was 3.91 µM (inactive); in the experiment on NCI/ADR-RES it was 2.42 µM (inactive); with RPMI-8226 it was 0.995 µM (active); in the experiment on SK-MEL-5, 9.82 µM (inactive). Besides, the GI50 is 6.76 µM (inactive) in the experiment with CAKI-1; 15.7 µM (inactive) in the experiment with SK-OV-3; 5.71 µM (inactive) in the experiment on SN12C; 3.08 µM (inactive) in the experiment on OVCAR-8; 2.74 µM (inactive) with DU-145; 0.638 µM (active) in the experiment on HL-60. In addition, the GI50 in the experiment on A549 is 19 µM (inactive); in the experiment with UACC-257 it was 3.85 µM (inactive).
On to `CN(C)CCNc1nc2ccccc2c2c1CCCC2`, for which the GI50 is 16.3 µM (inactive) in the experiment on NCI-H522; 21.1 µM (inactive) in the experiment on NCI-H226; 23.2 µM (inactive) in the experiment on MOLT-4; 16.1 µM (inactive) in the experiment on MDA-N; 28.2 µM (inactive) with SF-539; 12.5 µM (inactive) in the experiment on HCC 2998. Besides, the GI50 with SF-295 was 15.9 µM (inactive); in the experiment with U-251, 17.3 µM (inactive); with BT-549, 33.1 µM (inactive); in the experiment with NCI/ADR-RES it was 25.1 µM (inactive); in the experiment on RPMI-8226 it was 20.5 µM (inactive); in the experiment with SK-MEL-5, 15.3 µM (inactive). Also, the GI50 is 16.9 µM (inactive) with CAKI-1; 18.2 µM (inactive) in the experiment on SK-OV-3; 22.9 µM (inactive) in the experiment with SN12C; 31.8 µM (inactive) in the experiment on OVCAR-8; 33.9 µM (inactive) with DU-145; 14.8 µM (inactive) in the experiment on HL-60. In addition, the values for the GI50 with A549 and in the experiment with UACC-257 were 32.6 µM (inactive) and 15.1 µM (inactive), respectively.
Take `Cn1c(=O)c2nc3nnc(C#N)c(N)n3c2n(C)c1=O`: the GI50 in the experiment with NCI-H522 is > 100 µM (inactive); in the experiment with NCI-H226, 54.1 µM (inactive); in the experiment with MOLT-4 it was > 100 µM (inactive); in the experiment on MDA-N, > 100 µM (inactive); in the experiment with SF-539, 90.2 µM (inactive); in the experiment with HCC 2998, > 100 µM (inactive). The GI50 was > 100 µM (inactive) with SF-295; > 100 µM (inactive) in the experiment on U-251; > 100 µM (inactive) with BT-549; > 100 µM (inactive) in the experiment with NCI/ADR-RES; > 100 µM (inactive) with RPMI-8226; 45.9 µM (inactive) in the experiment with SK-MEL-5. The GI50 in the experiment with CAKI-1 is 51.8 µM (inactive); in the experiment on SK-OV-3, > 100 µM (inactive); with SN12C, > 100 µM (inactive); in the experiment with OVCAR-8, > 100 µM (inactive); with DU-145 it was 72.4 µM (inactive); in the experiment with HL-60, > 100 µM (inactive). Also, in the experiment with A549, the GI50 is > 100 µM (inactive).
As to `CN(C)C(=S)Oc1ccc2ccc(=O)oc2c1`, the GI50 in the experiment with NCI-H522, in the experiment on NCI-H226, in the experiment with MOLT-4, in the experiment with MDA-N, with SF-539 and in the experiment on HCC 2998 was > 100 µM (inactive) throughout. Moreover, the GI50 in the experiment on SF-295, in the experiment on U-251, in the experiment with BT-549, in the experiment on NCI/ADR-RES, in the experiment with RPMI-8226 and in the experiment with SK-MEL-5 was > 100 µM (inactive) each time. The GI50 with CAKI-1, in the experiment on SK-OV-3, with SN12C, in the experiment on OVCAR-8, with DU-145 and in the experiment with HL-60 was > 100 µM (inactive) in each case. For the same compound, the GI50 in the experiment with A549 and with UACC-257 was > 100 µM (inactive) each time.
Regarding `COC1C(CO)OC(n2c3c(Cl)cccc3c3c4c(c5c6cccc(Cl)c6[nH]c5c32)C(=O)NC4=O)C(O)C1O` (stereo not drawn), the GI50 is 0.21 µM (active) with NCI-H522; 0.187 µM (active) in the experiment on NCI-H226; 0.0498 µM (active) in the experiment on MOLT-4; 0.324 µM (active) in the experiment with MDA-N; 0.195 µM (active) in the experiment with SF-539; 0.367 µM (active) with HCC 2998. For the same compound, the GI50 with SF-295 was 0.286 µM (active); in the experiment with U-251, 0.173 µM (active); in the experiment on BT-549, 0.162 µM (active); in the experiment on NCI/ADR-RES, 0.444 µM (active); in the experiment on RPMI-8226, 0.242 µM (active); in the experiment with SK-MEL-5 it was 0.157 µM (active). Besides, the GI50 in the experiment with CAKI-1 is 0.169 µM (active); in the experiment on SK-OV-3, 0.303 µM (active); in the experiment with SN12C, 0.104 µM (active); in the experiment with OVCAR-8, 0.177 µM (active); in the experiment with DU-145, 0.202 µM (active); in the experiment on HL-60, 0.22 µM (active). Moreover, the GI50 in the experiment on A549 is 0.298 µM (active); in the experiment with UACC-257 it was 0.219 µM (active).
`Cc1cnc2nc(-c3cccc4ccccc34)cc(O)c2c1`: the GI50 in the experiment on NCI-H522 is 0.000261 µM (active); in the experiment on NCI-H226, 0.01 µM (active); in the experiment on MOLT-4, 0.000955 µM (active); with MDA-N it was 0.000216 µM (active); in the experiment with SF-539 it was 0.000618 µM (active); in the experiment on HCC 2998, 0.000723 µM (active). Moreover, the GI50 in the experiment on SF-295 was 0.000887 µM (active); in the experiment on U-251, 0.000532 µM (active); in the experiment with BT-549, 0.0536 µM (active); with NCI/ADR-RES, 0.000428 µM (active); in the experiment with RPMI-8226 it was 0.000487 µM (active); with SK-MEL-5, 0.000359 µM (active). The GI50 was 0.000646 µM (active) with CAKI-1; 0.000706 µM (active) in the experiment with SK-OV-3; 0.00869 µM (active) with SN12C; 0.00251 µM (active) with OVCAR-8; 0.00394 µM (active) with DU-145; 0.000232 µM (active) in the experiment with HL-60. Moreover, the GI50 is 0.0014 µM (active) with A549 and 0.000254 µM (active) in the experiment with UACC-257.
